# Assay results: publication PMC9960307, “Design, Synthesis, Biological Evaluation, and Molecular Dynamics Simulation of Influenza Polymerase PB2 Inhibitors” (Molecules, 2023)
# Several values for one entry are separate records, joined by “and”; a condition that tells them apart may be missing. Equal entries are not always repeated. Where two headings read alike, the source gives them in different places.
# Key:
# aldehyde oxidase (AO) = target: T1, aldehyde oxidase (AO) (Homo sapiens, UniProt Q06278); test: AO-mediated metabolic stability in human liver cytosol with/without raloxifene; assay type: in vitro ADME; settings: for sensitivity to aldehyde oxidase (AO substrate or not): human liver cytosol, in words; for half-life at 1 μM: pooled liver (hepatocyte) cytosol, pH 7.4, human liver cytoplasm, read-out: Cytoplasm T1/2, Human
# T1 construct: Human liver cytosolic protein was incubated with VX-787, comp; I, and comp; II; from tissue; host or cells: pooled human liver (hepatocyte) cytosol
# T1 sequence (Q06278 1-1338): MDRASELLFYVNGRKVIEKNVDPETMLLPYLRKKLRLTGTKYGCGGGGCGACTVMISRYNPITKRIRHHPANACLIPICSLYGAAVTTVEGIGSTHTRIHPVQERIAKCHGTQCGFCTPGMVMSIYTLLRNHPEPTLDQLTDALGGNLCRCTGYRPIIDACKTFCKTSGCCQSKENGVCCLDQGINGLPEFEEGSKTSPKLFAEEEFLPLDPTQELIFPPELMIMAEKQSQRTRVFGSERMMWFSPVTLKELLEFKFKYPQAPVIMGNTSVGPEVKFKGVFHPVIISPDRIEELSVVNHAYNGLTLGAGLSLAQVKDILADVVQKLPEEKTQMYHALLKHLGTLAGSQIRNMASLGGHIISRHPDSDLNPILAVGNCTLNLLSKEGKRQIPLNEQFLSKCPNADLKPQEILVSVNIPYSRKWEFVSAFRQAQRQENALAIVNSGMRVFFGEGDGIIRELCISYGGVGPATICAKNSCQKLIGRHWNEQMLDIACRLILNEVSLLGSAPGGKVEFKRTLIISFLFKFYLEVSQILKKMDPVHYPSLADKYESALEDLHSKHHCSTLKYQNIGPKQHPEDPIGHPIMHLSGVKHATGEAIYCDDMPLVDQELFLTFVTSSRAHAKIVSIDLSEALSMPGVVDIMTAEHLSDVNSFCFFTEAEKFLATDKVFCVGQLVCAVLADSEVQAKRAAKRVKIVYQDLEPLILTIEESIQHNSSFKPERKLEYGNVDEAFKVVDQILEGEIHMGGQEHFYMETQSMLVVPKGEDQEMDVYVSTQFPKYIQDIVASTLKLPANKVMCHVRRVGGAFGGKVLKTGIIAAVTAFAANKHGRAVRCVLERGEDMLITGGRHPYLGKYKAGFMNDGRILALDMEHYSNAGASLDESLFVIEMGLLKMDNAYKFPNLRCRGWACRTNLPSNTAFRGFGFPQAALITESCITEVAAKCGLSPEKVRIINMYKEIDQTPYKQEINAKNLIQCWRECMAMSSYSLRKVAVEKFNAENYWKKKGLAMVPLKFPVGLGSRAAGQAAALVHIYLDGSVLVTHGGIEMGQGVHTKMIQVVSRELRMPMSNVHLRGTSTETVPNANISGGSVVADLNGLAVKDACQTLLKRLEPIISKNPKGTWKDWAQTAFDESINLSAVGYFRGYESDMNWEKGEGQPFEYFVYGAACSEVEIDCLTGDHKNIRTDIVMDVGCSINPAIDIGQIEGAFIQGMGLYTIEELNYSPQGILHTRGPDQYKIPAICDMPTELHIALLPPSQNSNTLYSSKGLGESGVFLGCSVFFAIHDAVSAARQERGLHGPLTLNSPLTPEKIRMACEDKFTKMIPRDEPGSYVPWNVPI
# [1] = oral dose 600 mg, bid, healthy volunteers; cited from earlier work
# in vitro [2] = settings: human, microsomes, pH 7.4, Microsome T1/2, Human, human liver microsomes, 1 μM
# virus-free cells = test system: virus-free cells; set-up: method as in PMID 25547360; settings: incubated in virus-free cells; cited from earlier work
# [3] = test system: influenza virus A/Puerto Rico/8/1934 (H1N1); test: Cytopathic effect (CPE) inhibition assay, H1N1; assay type: cell-based, influenza A/Puerto Rico/8/1934 (H1N1); settings: MDCK, 72 h, read-out: H1N1 IC50
# in vitro [4] = settings: rat, microsomes, pH 7.4, Microsome T1/2, Rat, rat liver microsomes, 1 μM
# in vitro [5] = settings: dog
# [6] = not given; remark: listed apart in the source
# [7] = set-up: method as in PMID 32604406; settings: phase II clinical trial; cited from earlier work
# [8] = test system: influenza virus A/Hong Kong/8/68 (H3N2); test: Cytopathic effect (CPE) inhibition assay, H3N2; assay type: cell-based, influenza A/Hong Kong/8/68 (H3N2); settings: MDCK cells, MOI 0.005, 72 h, CellTiter-Glo
# [9] = target: T2, influenza A/WSN/1933 (H1N1) PB2 CBD (aa.318-486) (Influenza A virus, UniProt P03427); test: SPR competitive binding assay (Biacore T200)
# T2 construct: influenza A/WSN/1933 (H1N1) PB2 CBD (aa.318-486); purchased
# T2 sequence (P03427 318-486): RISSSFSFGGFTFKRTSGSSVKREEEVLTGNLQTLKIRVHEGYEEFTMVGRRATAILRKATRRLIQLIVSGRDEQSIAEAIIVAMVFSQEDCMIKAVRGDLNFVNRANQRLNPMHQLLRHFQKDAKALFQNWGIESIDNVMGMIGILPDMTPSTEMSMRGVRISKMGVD
# Protocol: Biomolecular interaction analysis based on surface plasmon resonance (SPR) assays was performed using VX-787 and comp. I and II at concentrations ranging from 20 to 0.156 µM to investigate their competitive binding affinities with PB2 (Table 1).
# Commercial companies express and purify HIN1 PB2 CBD protein, which provides influenza A/WSN/1933 (H1N1) PB2 CBD (aa.318-486). Using a Biacore T200 (GE Healthcare) and a running buffer of which contains a solution of 1 × PBS-P + 0.02 M phosphate buffer, 2.7 mM KCl, 0.137 M NaCl, and 0.05% Tween 20, H1N1 PB2 was immobilized to a level of 4900 response units (RUs). Serial dilutions of small molecules were injected, ranging in concentration from 20 µM to 0.156 µM. GE Healthcare’s Biacore Evaluation Software was used to fit the resulting data to the affinity binding model.
# influenza virus = test: CPE inhibition assay as summarised in the conclusions (strain not stated); assay type: cell-based; settings: unidentified influenza virus
# [10] = not given; remark: listed apart in the source
# [11] = with AO inhibitor raloxifene, 0 min
# [12] = with AO inhibitor raloxifene, 15 min
# [13] = with AO inhibitor raloxifene, 30 min
# [14] = with AO inhibitor raloxifene, 60 min
smiles,measurement,setting,value
"O=C(O)[C@H]1C2CCC(CC2)[C@@H]1Nc1nc(-c2c[nH]c3ncc(F)cc23)ncc1F [VX-787, pimodivir, reference compound]",sensitivity to aldehyde oxidase (AO substrate or not),aldehyde oxidase (AO),indeed an AO substrate
same,half-life at 1 μM,aldehyde oxidase (AO),2.5 h
same,Residual percentage in 0.5mg/ml human liver cytoplasm,aldehyde oxidase (AO); [11],100.00±3.54%
same,Residual percentage in 0.5mg/ml human liver cytoplasm,aldehyde oxidase (AO); [12],100.65±7.76%
same,Residual percentage in 0.5mg/ml human liver cytoplasm,aldehyde oxidase (AO); [13],97.25±1.77%
same,Residual percentage in 0.5mg/ml human liver cytoplasm,"aldehyde oxidase (AO); without raloxifene, 0 min",100.00±7.65%
same,Residual percentage in 0.5mg/ml human liver cytoplasm,"aldehyde oxidase (AO); without raloxifene, 15 min",87.02±9.00%
same,Residual percentage in 0.5mg/ml human liver cytoplasm,"aldehyde oxidase (AO); without raloxifene, 30 min",90.17±9.31%
same,Residual percentage in 0.5mg/ml human liver cytoplasm,"aldehyde oxidase (AO); without raloxifene, 60 min",71.87±6.78% and 72%
same,safety in phase I clinical trial,[1],no safety issues
same,half-life,in vitro [2],5.82 h
same,"Microsome Clh, Human",human liver microsomes,1.49 mL/min/kg
same,Residual percentage in human liver microsome,"with NADPH, 0 min",99.99±4.23%
same,Residual percentage in human liver microsome,"with NADPH, 5 min",103.84±1.21%
same,Residual percentage in human liver microsome,"with NADPH, 15 min",91.56±7.20%
same,Residual percentage in human liver microsome,"with NADPH, 30 min",101.85±8.49%
same,Residual percentage in human liver microsome,"with NADPH, 60 min",89.33±8.96% and 89.33%
same,Residual percentage in human liver microsome,"without NADPH, 0 min",100.00%
same,Residual percentage in human liver microsome,"without NADPH, 5 min",110.26%
same,Residual percentage in human liver microsome,"without NADPH, 15 min",100.78%
same,Residual percentage in human liver microsome,"without NADPH, 30 min",113.32%
same,Residual percentage in human liver microsome,"without NADPH, 60 min",107.81%
same,cytotoxicity,virus-free cells,no cytotoxicity
same,IC50,[3],< 3 nM
same,half-life,in vitro [4],4.16 h
same,CC50,in vitro [5],> 200000 nM
same,"Microsome Clh, Rat",[6]; rat liver microsomes,1.72 mL/min/kg
same,Residual percentage in rat liver microsome,"[6]; with NADPH, 0 min",99.99±0.99%
same,Residual percentage in rat liver microsome,"[6]; with NADPH, 5 min",98.25±4.53%
same,Residual percentage in rat liver microsome,"[6]; with NADPH, 15 min",95.80±0.68%
same,Residual percentage in rat liver microsome,"[6]; with NADPH, 30 min",91.51±3.09%
same,Residual percentage in rat liver microsome,"[6]; with NADPH, 60 min",88.79±2.11% and 88%
same,Residual percentage in rat liver microsome,"[6]; without NADPH, 0 min",99.99±2.01%
same,Residual percentage in rat liver microsome,"[6]; without NADPH, 5 min",109.05%
same,Residual percentage in rat liver microsome,"[6]; without NADPH, 15 min",103.93%
same,Residual percentage in rat liver microsome,"[6]; without NADPH, 30 min",100.41%
same,Residual percentage in rat liver microsome,"[6]; without NADPH, 60 min",92.13±5.76%
same,adverse effects,[7],no serious adverse effects
same,viral load in patients,[7],reduce the viral load
same,IC50,[8],< 3 nM
same,Kd,"[9]; 20 to 0.156 µM, affinity binding model, read-out: SPR KD",152 nM
"O=C(O)C1C2CCC(CC2)C1Nc1nc(-n2c(=O)[nH]c3ncc(F)cc32)ncc1F [comp. I, (1R,2S,3S,4R)-3-((5-fluoro-2-(6-fluoro-2-oxo-2,3-dihydro-1H-imidazo[4,5-b]pyridin-1-yl)pyrimidin-4-yl)amino)bicyclo[2.2.2]octane-2-carboxylic acid]",sensitivity to aldehyde oxidase (AO substrate or not),aldehyde oxidase (AO),remains as a substrate
same,half-life at 1 μM,aldehyde oxidase (AO),> 13.3 h
same,Residual percentage in 0.5mg/ml human liver cytoplasm,aldehyde oxidase (AO); [11],100.00±3.87%
same,Residual percentage in 0.5mg/ml human liver cytoplasm,aldehyde oxidase (AO); [12],108.27±5.07%
same,Residual percentage in 0.5mg/ml human liver cytoplasm,aldehyde oxidase (AO); [13],102.66±4.43%
same,Residual percentage in 0.5mg/ml human liver cytoplasm,aldehyde oxidase (AO); [14],112.89±1.99%
same,Residual percentage in 0.5mg/ml human liver cytoplasm,"aldehyde oxidase (AO); without raloxifene, 0 min",100.00±6.12%
same,Residual percentage in 0.5mg/ml human liver cytoplasm,"aldehyde oxidase (AO); without raloxifene, 15 min",95.20±3.72%
same,Residual percentage in 0.5mg/ml human liver cytoplasm,"aldehyde oxidase (AO); without raloxifene, 30 min",99.98±8.74%
same,Residual percentage in 0.5mg/ml human liver cytoplasm,"aldehyde oxidase (AO); without raloxifene, 60 min",93%
same,Residual percentage in 0.5mg/ml human liver cytoplasm,"aldehyde oxidase (AO); without raloxifene, 60 min, listed as Comp I",93.52±8.82%
same,half-life,in vitro [2],> 13.3 h
same,IC50,[3],70 ± 20 nM
same,EC50,influenza virus,40 nM
same,half-life,in vitro [4],> 13.3 h
same,CC50 at 72 h,in vitro [5],> 200000 nM
same,Residual percentage in rat liver microsome,"[6]; rat, 0 min, 1 μM, pH 7.4",100.00%
same,"Microsome Clh, Rat","[6]; rat, 1 μM, pH 7.4",0.53 mL/min/kg
same,IC50,[8],40 ± 10 nM
same,Kd,[9],1400 nM
"N=c1[nH]c2ncc(F)cc2n1-c1ncc(F)c(NC2C3CCC(CC3)C2C(=O)O)n1 [comp. II, (1R,2S,3S,4R)-3-((2-(2-amino-6-fluoro-1H-imidazo[4,5-b]20yridine-1-yl)-5-fluoropyrimidin-4-yl)amino)bicyclo[2.2.2]octane-2-carboxylic acid]",sensitivity to aldehyde oxidase (AO substrate or not),aldehyde oxidase (AO),nearly unaffected
same,half-life at 1 μM,aldehyde oxidase (AO),> 13.3 h
same,Residual percentage in 0.5mg/ml human liver cytoplasm,aldehyde oxidase (AO); [11],100.00±8.74%
same,Residual percentage in 0.5mg/ml human liver cytoplasm,aldehyde oxidase (AO); [12],110.60±4.82%
same,Residual percentage in 0.5mg/ml human liver cytoplasm,aldehyde oxidase (AO); [13],107.60±7.80%
same,Residual percentage in 0.5mg/ml human liver cytoplasm,aldehyde oxidase (AO); [14],109.12±6.67%
same,Residual percentage in 0.5mg/ml human liver cytoplasm,"aldehyde oxidase (AO); without raloxifene, 0 min",100.00±0.44%
same,Residual percentage in 0.5mg/ml human liver cytoplasm,"aldehyde oxidase (AO); without raloxifene, 15 min",107.07±16.04%
same,Residual percentage in 0.5mg/ml human liver cytoplasm,"aldehyde oxidase (AO); without raloxifene, 30 min",108.17±9.51%
same,Residual percentage in 0.5mg/ml human liver cytoplasm,"aldehyde oxidase (AO); without raloxifene, 60 min",barely changed
same,Residual percentage in 0.5mg/ml human liver cytoplasm,"aldehyde oxidase (AO); without raloxifene, 60 min, listed as Comp II",103.11±2.84%
same,half-life,in vitro [2],> 13.3 h
same,"Microsome Clh, Human","human, 1 μM, pH 7.4",0.46 mL/min/kg
same,IC50,[3],90 ± 50 nM
same,melting point,[10],315 to 317 °C
same,EC50,influenza virus,90 nM
same,half-life,in vitro [4],> 13.3 h
same,CC50 at 72 h,in vitro [5],> 200000 nM
same,IC50,[8],70 ± 30 nM
same,Kd,[9],1670 nM
